Experimental data published in patent US20260215425A1, “NITRIFICATION INHIBITORS” (The University of Melbourne, priority 2022, published 2026).

Experiments:
N. europaea = assay: standard nitrification inhibition assay (NO2- production, Griess); type: cell-based, Nitrosomonas europaea; conditions: [NH4+]=3 mM, [inhibitor]=0.3 mM (10 mol %), pH 7.5, 30° C., 60 min
Description: Cells of N. multiformis and N. europaea were cultivated to the mid-exponential growth phase (OD600=0.1, [NO2^−] approximately 800 μM) and harvested by filtration onto 0.2 μm membrane filters (Mixed Cellulose Ester (MCE), Sigma Aldrich). The cells were washed with 2×100 mL of 0.1 M sodium phosphate buffer (NaPB), containing 0.2 mM MgSO4 at pH 7.5. The cells were washed from the filter paper by transferring it to a sterile 50 mL tube and resuspending in NaPB (15 mL), followed by 5 s of vortexing (Ratek, Australia) and 3 s of sonication (Vevor, Australia). […] Experiments were performed in triplicate.
In a deep 96-well plate (2 mL capacity), 980 μL of the bacterial inoculum (OD600=0.03) was added to the inhibitor (10 μL, 30 mmol L^−1 in Milli-Q water), the solutions were mixed thoroughly and pre-incubated in the dark for 5 minutes at 100 rpm and 30° C. (NH4)2SO4 (10 μL, 150 mM, from a prepared sterile solution containing 19.8 g L^−1 (NH4)2SO4 in Milli-Q water) was then added using a multi-channel pipette. The plate was covered with a with an O2 permeable membrane to ensure aeration (Breathe-Easy® sealing membrane, Sigma Aldrich) and incubated in a temperature-regulated rotary incubator (Ratek, Australia) in the dark for 60 minutes at 30° C. and 100 rpm. An aliquot of the reaction solution ([…]) was transferred to a 96-well spectrophotometric plate to which 50 µL of Griess reagent was added. The colour was allowed to develop for 15 minutes at room temperature, and the absorbance was measured at 540 nm. Each assay was accompanied by control treatments to determine the 0% and 100% NO2 signal. The percentage inhibition was calculated according to eqn. 1 from the NO2 production of the cells in NaPB (i) without additive (‘untreated cells’: 0% signal), (ii) with [NH4^+]=3 mM (‘uninhibited’ cells: 100% signal) and (iii) with [NH4^+]=3 mM and [inhibitor]=0.3 mM and 0.03 mM (10 mol % and 1 mol % of [NH4^+], ‘inhibited cells’). Experiments were performed in triplicate.

[1] = system: N. europaea and N. multiformis; assay: activity recovery assay (binding studies); type: cell-based; conditions: [inhibitor]=1.5 mM, 30 min, then washed and re-incubated with (NH4)2SO4
Description: Cells were harvested using the ‘standard cell harvesting protocol’. The bacteria solution was adjusted to an OD600=0.8 (100 μg/L protein) and 980 μL aliquots were transferred to 1.5 mL centrifuge tubes (Eppendorf®, polypropylene). 10 μL of the inhibitor solution (150 mM in DMSO) was added and pre-equilibrated for 5 min; 10 μL of aqueous 150 mM (NH4)2SO4 (final concentration in tube=3 mM) was added by via multichannel pipette to ensure simultaneous addition in each tube. The tubes were incubated in a temperature-regulated rotary incubator (Ratek, Australia) for 30 min at 30° C. at 100 rpm in the dark. After 30 minutes, a 50 μL aliquot was transferred to a 96-well plate (Greiner Cellstar®, polystyrene), 50 μL of Griess reagent was added and the mixture incubated for 15 minutes. The absorbance was measured photometrically (Clariostar® BMG Labtech, Australia) at 540 nm. The cells were washed repeatedly (3×) by periodic centrifuging (Boeco, Germany; 10.000 rpm, 10 min) and resuspending the pellet in 1 mL NaPB. After the final centrifuging step, the pellet was resuspended in 990 μL NaPB and re-incubated with (NH4)2SO4 (10 μL of an aqueous 150 mM solution), and the NO2 concentration was measured under the previously described conditions. Each assay was accompanied by control treatments to determine the 0% and 100% NO2 signal. […]

## C#CCn1cc(C)nn1 [Compound 4-MPT, 4-Methyl-1-(prop-2-yn-1yl)-1H-1,2,3-triazole]
N. europaea
  % Inhibition NE: 77%
[1]
  recovery of activity of cells after three washing steps: could not be recovered
